# Laboratory results taken from publication PMC9393241, “Design, Synthesis, and Activity Assays of Cyclin-Dependent Kinase 1 Inhibitors With Flavone Scaffolds” (Frontiers in Chemistry, 2022).
# What was measured:
# CDK1/cyclin B kinase = target: CDK1/cyclin B kinase; set-up: method as in Mou et al., 2021a; conditions: ref Mou et al., 2021a; read-out: IC50 against CDK1/cyclin B kinase; cited from earlier work
# CDK1/cyclin B1 = target: T1, CDK1/cyclin B1 (Homo sapiens, UniProt P06493); experiment: In vitro anti-CDK1/cyclin B1 kinase assay (Kinase-Glo luminescence); format: biochemical; conditions: for Selectivity: CDK1 compared with CDK4 (CDK4 IC50 / CDK1 IC50); for inhibition at 20 µM: test compounds at 20 μM, read-out: Inhibition rates (%) CDK1
# T1 construct: purchased
# T1 sequence (P06493 whole entry): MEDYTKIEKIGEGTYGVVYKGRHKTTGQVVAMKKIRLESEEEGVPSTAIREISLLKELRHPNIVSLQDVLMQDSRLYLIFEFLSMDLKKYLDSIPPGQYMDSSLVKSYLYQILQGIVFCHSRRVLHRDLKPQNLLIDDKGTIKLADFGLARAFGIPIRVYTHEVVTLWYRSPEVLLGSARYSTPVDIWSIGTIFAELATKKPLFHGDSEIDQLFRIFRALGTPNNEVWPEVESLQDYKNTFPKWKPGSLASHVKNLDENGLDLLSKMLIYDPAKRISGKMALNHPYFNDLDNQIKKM
# T1 sequence (P14635 whole entry partner): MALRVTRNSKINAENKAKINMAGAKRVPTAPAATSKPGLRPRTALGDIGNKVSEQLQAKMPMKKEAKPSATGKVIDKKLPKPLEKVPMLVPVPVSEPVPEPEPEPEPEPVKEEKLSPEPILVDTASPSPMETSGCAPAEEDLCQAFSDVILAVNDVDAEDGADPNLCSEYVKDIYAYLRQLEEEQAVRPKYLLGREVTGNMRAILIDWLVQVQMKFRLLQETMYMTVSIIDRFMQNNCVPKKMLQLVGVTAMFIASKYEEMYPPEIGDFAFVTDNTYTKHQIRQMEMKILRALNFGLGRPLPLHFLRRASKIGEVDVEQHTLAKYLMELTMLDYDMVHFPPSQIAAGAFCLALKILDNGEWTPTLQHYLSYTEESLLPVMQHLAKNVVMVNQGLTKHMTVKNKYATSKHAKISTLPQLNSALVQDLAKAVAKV
# Procedure: (§1) In vitro anti-CDK1/cyclin B1 and CDK4/cyclin D3 assays were performed as described by the manufacturer. All test compounds and controls were dissolved in dimethyl sulfoxide (DMSO) to prepare 50 μM stock solutions. The stock solutions were diluted by double-distilled water and buffer to 40, 30, 20, and 10 μM working concentrations and stored at −20°C. Buffer, ATP, CDK substrate […], and distilled water were mixed, and then 25 μl of the mixture was added to a 96-well plate. Five microliters of 20 μM test compounds were sequentially added. CDK1/cyclin B1 was diluted to 1 ng/μl, and CDK4/cyclin D3 was diluted to 10 ng/μl using a buffer. Twenty microliters of the kinase solutions were incubated with the test compounds at 30°C for 45 min for CDK1/cyclin B1 and for 60 min for CDK4/cyclin D3. Finally, 50 μl of Kinase-Glo Max reagent was added to each well. The 96-well plate was covered with aluminum foil and incubated at room temperature for 15 min. Luminescence of the test compounds was measured with a microplate reader.
# CDK4/cyclin D3 = target: T2, CDK4/cyclin D3 (Homo sapiens, UniProt P11802); experiment: In vitro anti-CDK4/cyclin D3 kinase assay (Kinase-Glo luminescence); format: biochemical; conditions: for inhibition at 20 µM: test compounds at 20 μM, read-out: Inhibition rates (%) CDK4
# T2 construct: purchased
# T2 sequence (P11802 whole entry): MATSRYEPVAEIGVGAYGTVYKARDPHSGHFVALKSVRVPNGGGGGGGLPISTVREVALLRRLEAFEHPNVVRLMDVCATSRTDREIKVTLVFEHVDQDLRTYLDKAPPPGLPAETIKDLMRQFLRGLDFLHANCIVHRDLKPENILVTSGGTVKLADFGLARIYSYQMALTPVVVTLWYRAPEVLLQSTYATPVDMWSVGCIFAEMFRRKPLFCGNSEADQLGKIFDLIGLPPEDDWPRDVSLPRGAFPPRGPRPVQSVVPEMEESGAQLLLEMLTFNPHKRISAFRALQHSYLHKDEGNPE
# T2 sequence (P30281 whole entry partner): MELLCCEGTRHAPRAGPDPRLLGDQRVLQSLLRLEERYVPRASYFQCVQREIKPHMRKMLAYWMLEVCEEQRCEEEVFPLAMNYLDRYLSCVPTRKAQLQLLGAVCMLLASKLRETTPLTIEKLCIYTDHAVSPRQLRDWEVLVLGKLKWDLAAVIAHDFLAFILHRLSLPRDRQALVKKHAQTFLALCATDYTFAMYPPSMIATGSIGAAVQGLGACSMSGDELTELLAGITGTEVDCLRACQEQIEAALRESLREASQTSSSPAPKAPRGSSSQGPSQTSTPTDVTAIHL
# Procedure: as §1
# MCF-7 cells = experiment: Cell growth inhibition assay (CCK-8), MCF-7; format: cell-based; conditions: Homo sapiens, MCF7, 24 h
# Procedure: (§2) All test compounds and controls were dissolved in DMSO to prepare 250 μM stock solutions. The stock solutions were filtered through a […] and diluted into five concentrations (0.1–250 μM) with DMEM medium. MCF-7 and RAW264.7 cells were inoculated at a concentration of 5,000 cells/100 μl/well into a 96-well plate for 24 h at 37°C in a humidified atmosphere containing 5% CO2. After 24 h of culture, the primary medium was discarded and replaced with 100 μl of fresh DMEM medium containing different concentrations of test compounds in triplicate. After another 24 h of culture, the medium was replaced with 100 μl of fresh DMEM medium containing 10% (v/v) CCK-8 reagent in each well for 2 h at 37°C. The OD value was measured at a wavelength of 450 nm. Cell viability was determined using the following equation: Cell viability=(ODsample-ODnegative control/ODpositive control-ODnegative control)×100% where OD positive control is the absorbance at 450 nm obtained from untreated cells. OD negative control is the absorbance obtained from a blank well containing the cell culture medium and CCK-8 reagent. The IC50 values were calculated from the plot of activity vs. inhibitor concentration by using the GraphPad Prism 5 software ([Yu et al., 2020]).
# RAW264.7 cells = experiment: Cell growth inhibition assay (CCK-8), RAW264.7; format: cell-based; conditions: Mus musculus, 24 h
# Procedure: as §2
# MCF-7 tumor cell = tested on: MCF-7 tumor cell; set-up: method as in Mou et al., 2021a; conditions: concentration of 50 μg/ml; ref Mou et al., 2021a; cited from earlier work
Structure (SMILES),IC50 (CDK1/cyclin B1) [µM],Selectivity (CDK1/cyclin B1),inhibition at 20 µM (CDK1/cyclin B1) [%],IC50 (CDK4/cyclin D3) [µM],inhibition at 20 µM (CDK4/cyclin D3) [%],IC50 (MCF-7 cells) [µM],melting point [°C],IC50 (CDK1/cyclin B kinase) [µM],IC50 (RAW264.7 cells) [µM],inhibition rate against MCF-7 tumor cell proliferation (MCF-7 tumor cell) [%]
C=C(C)C(=O)Oc1c(O)c(O)c2c(=O)cc(-c3ccccc3)oc2c1CN1CCN(C)CC1 [pro3o],–,–,–,–,–,–,–,1.26,–,–
"O=c1cc(-c2ccccc2)oc2c(CN3CCOCC3)c(O)c(CN3CCOCC3)c(O)c12 [Compound 5c, 5,7-Dihydroxy-6,8-bis(morpholinomethyl)-2-phenyl-4H-chromen-4-one]",39.6 ± 1.43,12.85,38.34 ± 0.08,508 ± 5.56,8.15 ± 0.06,76.9 ± 1.47,199.2 to 199.6,–,59.4 ± 1.23,–
"COc1ccc(-c2cc(=O)c3c(O)c(CN4CCN(C)CC4)c(O)cc3o2)cc1 [Compound 9a, 5,7-Dihydroxy-2-(4-methoxyphenyl)-6-((4-methylpiperazin-1-yl)methyl)-4H-chromen-4-one]",–,–,26.36 ± 0.09,–,5.43 ± 0.06,–,172.3 to 173.4,–,–,–
"CCn1cnc2c(Nc3cccc(Cl)c3)nc(NC3CCCCC3N)nc21 (centres unmarked) [CGP74514 A, reference compound]",10.9 ± 0.89,3.28,62.5 ± 0.05,35.6 ± 1.02,48.52 ± 0.04,–,–,–,–,96.7
"O=c1cc(-c2ccccc2)oc2c(CN3CCCC3)c(O)cc(O)c12 [Compound 6a, 5,7-Dihydroxy-2-phenyl-8-(pyrrolidin-1-ylmethyl)-4H-chromen-4-one]",51.4 ± 1.68,4.45,35.95 ± 0.09,229 ± 4.55,6.3 ± 0.07,–,192.9 to 193,–,–,–
"O=c1cc(-c2ccccc2)oc2c(CN3CCOCC3)c3c(c(O)c12)OCCCCO3 [Compound 2a, 12-Hydroxy-7-(morpholinomethyl)-9-phenyl-2,3,4,5-tetrahydro-[1,4]dioxocino[2,3-g]chromen-11-one]",36.4 ± 1.12,–,33.05 ± 0.12,–,–,79.7 ± 1.81,213.8 to 214.3,–,2.54 ± 0.12,96.7

# Second part, led by results:
IC50 (CDK1/cyclin B1) [µM],Selectivity (CDK1/cyclin B1),inhibition at 20 µM (CDK1/cyclin B1) [%],IC50 (CDK4/cyclin D3) [µM],inhibition at 20 µM (CDK4/cyclin D3) [%],IC50 (MCF-7 cells) [µM],melting point [°C],Structure (SMILES),IC50 (CDK1/cyclin B kinase) [µM],IC50 (RAW264.7 cells) [µM],inhibition rate against MCF-7 tumor cell proliferation (MCF-7 tumor cell) [%]
43.6 ± 1.53,–,37.6 ± 0.12,–,1.43 ± 0.06,131 ± 2.35,175.2 to 175.7,"COc1ccc(-c2cc(=O)c3c(O)cc(OCCBr)cc3o2)cc1 [Compound 12c, 7-(2-Bromoethoxy)-5-hydroxy-2-(4-methoxyphenyl)-4H-chromen-4-one]",–,68.4 ± 0.99,–
–,–,30.69 ± 0.1,–,8.55 ± 0.09,–,180.6 to 181.3,"CCCN(CCC)Cc1c(O)cc2oc(-c3ccc(OC)cc3)cc(=O)c2c1O [Compound 9b, 6-((Dipropylamino)methyl)-5,7-dihydroxy-2-(4-methoxyphenyl)-4H-chromen-4-one]",–,–,–
–,–,86.79 ± 0.04,–,89.71 ± 0.03,294 ± 3.13,–,"CN1CC[C@H](c2c(O)cc(O)c3c(=O)cc(-c4ccccc4Cl)oc23)[C@H](O)C1 [flavopiridol, reference compound]",–,0.55 ± 0.05,90.0
